Values of other authors in patent US6919088B2 (priority 2002, dated 2005).

How the values were obtained:
[1] = system: decorin and procollagen-I; details: in vitro testing compared to retinoic acid
[2] = system: arachadonic acid in tissue lipids; details: rats, dietary triacylglycerols

## CCCCCCCCCCC/C=C\CCCCC(=O)O [petroselinic acid, cis-6-octadecenoic acid]
[1]
  upregulating and increasing synthesis of decorin and procollagen-I: more effective than retinoic acid
[2]
  levels of arachadonic acid in tissue lipids: reduce the levels of arachadonic acid
